# Assay results reported in patent US12465603B2, “Phthalazinone based modulators for the treatment of disease” (Soley Therapeutics, Inc., priority 2022, dated 2025).
# Tests used:
# [1] = system: A2058 (ATCC, CRL-11147) cells; test: Cell viability assay (Cell Titre Glo, 72 hours) in A2058 cells; format: cell-based; settings: Homo sapiens
# Procedure: (§1) Example 31: Cell Viability Assays
# (§2) Phthalazinone based modulators as described herein were dispensed into 384 well CulturPlates™ (PerkinElmer) using Echo 555 acoustic dispensing in 10-point dose response curves at a final top concentration of 30 μM following a 1 in 3 dilution series. A2058 (ATCC, CRL-11147) or PA1 (ECACC, 90013101) cells were added directly to a compound at a density of 5000 cells per well in a final volume of 50 μL and incubated for 72 hours at 37° C., 5% CO2. Viability was assessed using Cell Titre Glo® (Promega) according to the manufacturer's instructions (25 μL per well) and IC50 curves were generated for each inhibitor using IDBS ActivityBase data analysis software.
# [2] = system: PA1 (ECACC, 90013101) cells; test: Cell viability assay (Cell Titre Glo, 72 hours) in PA1 cells; format: cell-based; settings: Homo sapiens, PA-1
# Procedure: as §1, §2
compound,measurement,setting,value
"Cn1cc(C(=O)N2CCN(c3ccccc3)CC2)c2ccccc2c1=O [Compound 1, 2-methyl-4-(4-phenylpiperazine-1-carbonyl)isoquinolin-1-one]",IC50,[1],1 to 10 µM
same,IC50,[2],1 to 10 µM
Cn1nc(C(=O)N2CCC(c3ccccc3)CC2)c2ccccc2c1=O [Compound 2],IC50,[1],10 to 20 µM
same,IC50,[2],1 to 10 µM
"CCn1nc(C(=O)N2CCN(c3ccccc3)CC2)c2ccccc2c1=O [Compound 3, 2-ethyl-4-(4-phenylpiperazine-1-carbonyl)phthalazin-1-one]",IC50,[1],1 to 10 µM
same,IC50,[2],≤ 1 µM
CC(C)n1nc(C(=O)N2CCN(c3ccccc3)CC2)c2ccccc2c1=O [Compound 4],IC50,[1],> 20 µM
same,IC50,[2],10 to 20 µM
CCCn1nc(C(=O)N2CCN(c3ccccc3)CC2)c2ccccc2c1=O [Compound 5],IC50,[1],> 20 µM
same,IC50,[2],10 to 20 µM
O=C(c1nn(CC(F)(F)F)c(=O)c2ccccc12)N1CCN(c2ccccc2)CC1 [Compound 6],IC50,[1],> 20 µM
same,IC50,[2],> 20 µM
O=C(c1nn(CC(F)F)c(=O)c2ccccc12)N1CCN(c2ccccc2)CC1 [Compound 7],IC50,[1],> 20 µM
same,IC50,[2],> 20 µM
O=C(c1nn(C2COC2)c(=O)c2ccccc12)N1CCN(c2ccccc2)CC1 [Compound 8],IC50,[1],> 20 µM
same,IC50,[2],> 20 µM
"O=C(c1nn(C2CC2)c(=O)c2ccccc12)N1CCN(c2ccccc2)CC1 [Compound 9, 2-cyclopropyl-4-(4-phenylpiperazine-1-carbonyl)phthalazin-1-one]",IC50,[1],1 to 10 µM
same,IC50,[2],≤ 1 µM
"Cc1ccc(N2CCN(C(=O)c3nn(C)c(=O)c4ccccc34)CC2)cc1 [Compound 10, 2-methyl-4-[4-(p-tolyl)piperazine-1-carbonyl]phthalazin-1-one]",IC50,[1],> 20 µM
same,IC50,[2],> 20 µM
Cn1ccc(N2CCN(C(=O)c3nn(C)c(=O)c4ccccc34)CC2)n1 [Compound 11],IC50,[1],> 20 µM
same,IC50,[2],> 20 µM
COc1cc(N2CCN(C(=O)c3nn(C)c(=O)c4ccccc34)CC2)cnn1 [Compound 12],IC50,[1],10 to 20 µM
same,IC50,[2],10 to 20 µM
COc1cc(F)cnc1N1CCN(C(=O)c2nn(C)c(=O)c3ccccc23)CC1 [Compound 13],IC50,[1],10 to 20 µM
same,IC50,[2],1 to 10 µM
COc1cccnc1N1CCN(C(=O)c2nn(C)c(=O)c3ccccc23)CC1 [Compound 14],IC50,[1],1 to 10 µM
same,IC50,[2],≤ 1 µM
COc1cnccc1N1CCN(C(=O)c2nn(C)c(=O)c3ccccc23)CC1 [Compound 15],IC50,[1],1 to 10 µM
same,IC50,[2],≤ 1 µM
COc1nccnc1N1CCN(C(=O)c2nn(C)c(=O)c3ccccc23)CC1 [Compound 16],IC50,[1],10 to 20 µM
same,IC50,[2],1 to 10 µM
Cn1nc(C(=O)N2CCN(c3ncccc3C3CC3)CC2)c2ccccc2c1=O [Compound 17],IC50,[1],≤ 1 µM
same,IC50,[2],≤ 1 µM
Cn1nc(C(=O)N2CCN(c3ccncc3F)CC2)c2ccccc2c1=O [Compound 18],IC50,[1],> 20 µM
same,IC50,[2],> 20 µM
Cn1nc(C(=O)N2CCN(c3ncc(F)cc3C3CC3)CC2)c2ccccc2c1=O [Compound 19],IC50,[1],1 to 10 µM
same,IC50,[2],≤ 1 µM
COc1ncccc1N1CCN(C(=O)c2nn(C)c(=O)c3ccccc23)CC1 [Compound 20],IC50,[1],1 to 10 µM
same,IC50,[2],1 to 10 µM
Cn1nc(C(=O)N2CCN(c3nccnc3C3CC3)CC2)c2ccccc2c1=O [Compound 21],IC50,[1],> 20 µM
same,IC50,[2],1 to 10 µM
COc1cncnc1N1CCN(C(=O)c2nn(C)c(=O)c3ccccc23)CC1 [Compound 22],IC50,[1],> 20 µM
same,IC50,[2],> 20 µM
COc1ncc(Cl)cc1N1CCN(C(=O)c2nn(C)c(=O)c3ccccc23)CC1 [Compound 23],IC50,[1],≤ 1 µM
same,IC50,[2],≤ 1 µM
COc1cc(C#N)ncc1N1CCN(C(=O)c2nn(C)c(=O)c3ccccc23)CC1 [Compound 24],IC50,[1],> 20 µM
same,IC50,[2],> 20 µM
Cc1cccc(N2CCN(C(=O)c3nn(C)c(=O)c4ccccc34)CC2)c1 [Compound 25],IC50,[1],≤ 1 µM
same,IC50,[2],≤ 1 µM
Cn1nc(C(=O)N2CCN(c3ccc(C(F)(F)F)cc3)CC2)c2ccccc2c1=O [Compound 27],IC50,[1],1 to 10 µM
same,IC50,[2],1 to 10 µM
Cn1nc(C(=O)N2CCN(c3ccncc3)CC2)c2ccccc2c1=O [Compound 28],IC50,[1],> 20 µM
same,IC50,[2],> 20 µM
COc1ccc(N2CCN(C(=O)c3nn(C)c(=O)c4ccccc34)CC2)cc1 [Compound 29],IC50,[1],> 20 µM
same,IC50,[2],> 20 µM
Cn1nc(C(=O)N2CCN(c3ccccc3F)CC2)c2ccccc2c1=O [Compound 30],IC50,[1],1 to 10 µM
same,IC50,[2],1 to 10 µM
Cn1nc(C(=O)N2CCN(c3ccccn3)CC2)c2ccccc2c1=O [Compound 31],IC50,[1],> 20 µM
same,IC50,[2],> 20 µM
Cn1nc(C(=O)N2CCN(c3cccnc3)CC2)c2ccccc2c1=O [Compound 32],IC50,[1],> 20 µM
same,IC50,[2],> 20 µM
Cn1nc(C(=O)N2CCN(c3cccc(F)c3)CC2)c2ccccc2c1=O [Compound 33],IC50,[1],≤ 1 µM
same,IC50,[2],≤ 1 µM
"COc1cc(F)cc(N2CCN(C(=O)c3nn(C)c(=O)c4ccccc34)CC2)c1 [Compound 34, 4-(4-(3-fluoro-5-methoxyphenyl)piperazine-1-carbonyl)-2-methylphthalazin-1(2H)-one]",IC50,[1],≤ 1 µM
same,IC50,[2],≤ 1 µM
COc1cncc(N2CCN(C(=O)c3nn(C)c(=O)c4ccccc34)CC2)c1 [Compound 35],IC50,[1],1 to 10 µM
same,IC50,[2],1 to 10 µM
COc1cc(N2CCN(C(=O)c3nn(C)c(=O)c4ccccc34)CC2)ccn1 [Compound 36],IC50,[1],> 20 µM
same,IC50,[2],> 20 µM
COc1ccncc1N1CCN(C(=O)c2nn(C)c(=O)c3ccccc23)CC1 [Compound 37],IC50,[1],≤ 1 µM
same,IC50,[2],≤ 1 µM
Cn1nc(C(=O)N2CCN(c3cncc(F)c3)CC2)c2ccccc2c1=O [Compound 38],IC50,[1],10 to 20 µM
same,IC50,[2],1 to 10 µM
Cn1nc(C(=O)N2CCN(c3cncnc3C3CC3)CC2)c2ccccc2c1=O [Compound 40],IC50,[1],1 to 10 µM
same,IC50,[2],1 to 10 µM
Cn1nc(C(=O)N2CCN(c3cccc(C4CC4)c3)CC2)c2ccccc2c1=O [Compound 41],IC50,[1],≤ 1 µM
same,IC50,[2],≤ 1 µM
CCOc1ccccc1N1CCN(C(=O)c2nn(C)c(=O)c3ccccc23)CC1 [Compound 42],IC50,[1],≤ 1 µM
same,IC50,[2],≤ 1 µM
Cn1nc(C(=O)N2CCN(c3ccc(F)c(F)c3)CC2)c2ccccc2c1=O [Compound 43],IC50,[1],1 to 10 µM
same,IC50,[2],1 to 10 µM
COc1ccc(F)c(N2CCN(C(=O)c3nn(C)c(=O)c4ccccc34)CC2)c1 [Compound 44],IC50,[1],≤ 1 µM
same,IC50,[2],≤ 1 µM
Cn1nc(C(=O)N2CCN(c3cc(F)cc(Cl)c3)CC2)c2ccccc2c1=O [Compound 45],IC50,[1],≤ 1 µM
same,IC50,[2],≤ 1 µM
Cn1nc(C(=O)N2CCN(c3ccc(C#N)cc3)CC2)c2ccccc2c1=O [Compound 46],IC50,[1],1 to 10 µM
same,IC50,[2],1 to 10 µM
Cn1nc(C(=O)N2CCN(c3cccc(Cl)c3)CC2)c2ccccc2c1=O [Compound 47],IC50,[1],≤ 1 µM
same,IC50,[2],≤ 1 µM
CCOc1ccc(F)cc1N1CCN(C(=O)c2nn(C)c(=O)c3ccccc23)CC1 [Compound 48],IC50,[1],≤ 1 µM
same,IC50,[2],≤ 1 µM
Cn1nc(C(=O)N2CCN(c3cccc(C#N)c3)CC2)c2ccccc2c1=O [Compound 49],IC50,[1],≤ 1 µM
same,IC50,[2],≤ 1 µM
COc1cccc(N2CCN(C(=O)c3nn(C)c(=O)c4ccccc34)CC2)c1 [Compound 50],IC50,[1],≤ 1 µM
same,IC50,[2],≤ 1 µM
Cn1nc(C(=O)N2CCN(c3ccc4c(c3)OCC4)CC2)c2ccccc2c1=O [Compound 51],IC50,[1],> 20 µM
same,IC50,[2],10 to 20 µM
